Assay results published in patent publication US9983195B2, “Engineered three-dimensional breast tissue, adipose tissue, and tumor disease model” (ORGANOVO, INC., priority 2014, dated 2018).

Tests used:
Assay type in all cases: cell-based, human
[1] = tested on: bioprinted breast cancer constructs (MCF7/HUVEC cancer node surrounded by NHMF, HUVEC, SPA stroma); experiment: Construct viability after drug treatment by alamarBlue assay; conditions: 10 μM compound for 3 days, followed by 100 μM compound for 24 hours; FIG. 14
From the text: Bioprinted breast cancer constructs were generated in which a cancer cell node, composed of MCF7 breast cancer cells and human umbilical vein endothelial (HUVEC) cells, is surrounded on all sides by a stromal compartment composed of normal human mammary fibroblasts (NHMF), HUVEC cells, and subcutaneous preadipocytes (SPA). Bio-inks were produced by combining cells with a reversibly cross-linkable, alginate-containing hydrogel (Novogel® 3.0 System; Organovo, Calif.). The stromal compartment of the constructs was comprised of 65% NHMF, 25% HUVEC, and 10% SPA (partially pre-differentiated). The cancer compartment of the constructs was comprised of 75% MCF7, 25% HUVEC. For each compartment, cells were mixed together at the indicated ratio and resuspended in Novogel® 3.0 at a concentration of 150 million cells/ml. Constructs were printed as 3 layered structures with a dimension of 3 mm×3 mm×0.75 mm. Immediately following bioprinting, constructs were stabilized via crosslinking. After 2 minutes, the calcium crosslinking solution was aspirated and replaced with culture media. After 2 days in culture, constructs were treated overnight with enzyme dissolved in culture media to remove the Novogel® 3.0. […] Constructs were assessed for metabolic activity by alamarBlue assay (Life Technologies, Carlsbad, Calif.) or CellTiter Glo assay (Promega, Madison, Wis.). […]

[2] = tested on: bioprinted breast cancer tumor models (stromal and cancer compartments); experiment: Apoptosis by TUNEL staining with CK8 and TE7 markers in bioprinted breast cancer tumor models; conditions: 100 μM cisplatin for 4 days; FIG. 22
From the text: (§1) The breast cancer tumor models included a nodule of human breast cancer cells surrounded by a physiologically-relevant stromal layer, which included human adipocytes differentiated from human mesenchymal stem cells, human mammary fibroblasts, and human endothelial cells. The adipocytes were derived from mesenchymal stem cells which were isolated an exposed to an adipocyte differentiation signal prior to preparation of the bio-ink and bioprinting.
Referring to FIG. 22, bioprinted tissues were treated with vehicle (A-C) or 100 μM cisplatin (D-F) for 4 days. The first (A and D) and second (B and E) columns depict tissues assessed for apoptosis by TUNEL staining (green) and markers for cancer cells (CK8, red). The last (C and F) column depicts tissues assessed for apoptosis by TUNEL staining (green) and markers for fibroblasts (TE7, red).

[3] = tested on: breast cancer cells in two-dimensional culture and bioprinted breast cancer tumor models; experiment: Viability by ATP luciferase assay, two-dimensional breast cancer cell culture versus bioprinted breast cancer tumor models; conditions: 10 μM tamoxifen for 48 hours, FIG. 20
From the text: as §1
The breast cancer tumor models were exposed to chemotherapy compounds in order to access drug response. Referring to FIG. 20, breast cancer cells grown in two-dimensional cell culture (A) and the bioprinted breast cancer tumor models (B) were treated with media alone, DMSO, or 10 μM tamoxifen for 48 hours and assessed for viability by ATP luciferase assay. For each graph, * indicates p<0.05 for treatment compared to control.

| SMILES | construct viability (alamarBlue) relative to media or vehicle controls [1] | apoptosis (TUNEL) in stromal versus cancer compartment [2] | susceptibility to tamoxifen-induced toxicity, two-dimensional cells versus three-dimensional bioprinted constructs [3] |
| --- | --- | --- | --- |
| N.N.[Cl][Pt][Cl] [Cisplatin, cisplatin] | decreased construct viability | induces greater apoptosis in the stromal compartment of bioprinted tissues than in the cancer compartment | – |
| CC(=O)O[C@H]1C(=O)[C@@]2(C)[C@H]([C@H](OC(=O)c3ccccc3)[C@]3(O)C[C@H](OC(=O)[C@H](O)[C@@H](NC(=O)c4ccccc4)c4ccccc4)C(C)=C1C3(C)C)[C@]1(OC(C)=O)CO[C@@H]1C[C@@H]2O [paclitaxel] | decreased construct viability | – | – |
| CC/C(=C(\c1ccccc1)c1ccc(OCCN(C)C)cc1)c1ccccc1 [tamoxifen] | – | – | Isolated two-dimensional cancer cells were more susceptible to tamoxifen-induced toxicity than cells incorporated into three-dimensional bioprinted constructs |
